Strand notation (5' to 3'): a small letter for the sugar, then the base; units joined by * are phosphorothioate-linked, units joined directly phosphodiester-linked; [ ] holds rarer units or linkages, { } end groups; capitals alone tell only the bases. Where no end group is shown, it is not given here. [ ]: non-standard residue; d: D form. {NH2C6-invAb} = cap: inverted abasic residue carrying an aminohexyl phosphate (attachment handle); [invAb] = inverted abasic unit; m = 2'-O-methyl; f = 2'-fluoro

The record followed here is patent publication US10532068B2, “Dual molecular delivery of oligonucleotides and peptide containing conjugates” (Merck Sharp & Dohme Corp., priority 2013, dated 2020).

The nature of data set [1]: Lethality observed in the in vivo evaluation in mice. Also on record: species or system CD-1 mice; key to lethal at this dose (asterisk at targeted peptide dose): *: lethal at this dose. On the procedure:
(§1) Female CD-1 mice (Charles River) were injected in accordance with either a sequential dosing paradigm or a co-dosing paradigm. In the sequential dosing paradigm, the targeted siRNA (SCE) is dosed at t=0 and the targeted peptide is separately dosed up to 2 hr before the SCE (−2 hr) or up to 24 hr after the SCE (+24 hr). In the co-dosing paradigm, the SCE and peptides are co-formulated and dosed together in the same formulation as a single injection at t=0. The mice were dosed either by intravenous (i.v.) or subcutaneous (s.c.) injection of SCE and peptide. For the i.v. doses, the compounds were injected into the tail vein of the mice. For the s.c. doses, the compounds were injected in the subcutaneous space on the back of the mouse between the shoulder blades. At the indicated harvest times (measured from t=0 when the siRNA was dosed, regardless of when the peptide was dosed), the animals were sacrificed and 3 mm liver punches were collected, preserved in RNAlater (Ambion), and stored at 4° C. Separate 5 mm liver punches were collected, placed in 96-well plates, frozen on dry ice, and stored at −80° C. until use.

Another data set relates to CTNNB1. The experiment in a line: In vivo evaluation in mice: liver mRNA knockdown measurement (TaqMan qPCR). Further details: species or system CD-1 mice. The note with it: Table 6, mice. The procedure: as §1
The 3 mm liver punches were removed from RNAlater and homogenized in Trizol (Invitrogen) using a bead mill tissue lyser (Qiagen); disruption was performed for two 5-minute cycles at 30 Hz. RNA extraction was performed using 1-bromo-2-chloropropane (Acros Organics) and total RNA was isolated from the aqueous phase using the MagMax RNA isolation method (Ambion). […] TaqMan qPCR analysis was performed with an ABI 7900 Real-Time PCR System using TaqMan Fast Advanced Master Mix (Applied Biosystems). All TaqMan probes and primers for CTNNB1 and PPIB (housekeeping gene) were purchased from Applied Biosystems as pre-validated gene expression assays. Results are calculated by the comparative Ct method, where the difference between the CTNNB1 Ct value and the PPIB Ct value (ΔCt) is calculated and then further normalized relative to the PBS control by taking a second difference (ΔΔCt), as described previously (1).

The nature of data set [2]: siRNA metabolic stability (FIG. 6 legend). The note with it: order siRNA-I>siRNA-V>siRNA-VI.
Setting [3] is: Table 6, TGN-L-siRNA-III 0.5 mg/kg IV, peptide 25 mg/kg IV 15 min after siRNA.
The mark [4] stands for this setting: sequential, peptide IV 15 min after siRNA IV, TGN-L-siRNA-III 0.5 mg/kg, peptide 2 mg/kg.
The mark [5] stands for this setting: sequential, peptide IV 15 min after siRNA IV, TGN-L-siRNA-III 0.5 mg/kg, peptide 10 mg/kg.
Where [6] appears, read: sequential, peptide IV 15 min after siRNA IV, TGN-L-siRNA-III 0.5 mg/kg, peptide 25 mg/kg.
Where [7] appears, read: Table 6, TGN-L-siRNA-III 0.25 mg/kg IV, peptide 10 mg/kg IV 15 min after siRNA.

With “TGN-S-S-SEQ ID NO: 1248 (D) (C[dF][dL][dE][dE][dL][dW][dE][dL][dL][dE][dH][dL][dL]; not fully specified (residue 1); listed as Homo sapiens)”, in data set [1] (setting [3]), the “lethal at this dose (asterisk at targeted peptide dose)” value (shortened to “lethal at this dose”) is reported as 25*. The results for the “In vivo mRNA knockdown (%)” value in the data set with CTNNB1 (setting [4]), in the data set on CTNNB1 (setting [5]) and in the data set on CTNNB1 (setting [6]) were 42%, 74% and 58%, respectively.

On to “TGN-S-S-SEQ ID NO: 1419 (D) (C[dF][dL][dE][dE][dL][dW]G[dL][dL][dE][dH][dL][dL]; not fully specified (residue 1); listed as Homo sapiens)”, for which, in data set [1] (setting [3]), the “lethal at this dose” value is listed as 25*. The “In vivo mRNA knockdown (%)” value in the data set on CTNNB1 (setting [4]) is given as 43%; in the data set on CTNNB1 (setting [5]), 78%; in the data set with CTNNB1 (setting [6]), 76%.

For the substance “TGN-S-S-SEQ ID NO: 1628 (D) ([dC]G[dL][dL][dA][dI]X[dE][dI][dE][dE][dL][dL][dE][dE]G[dL][dE][dN][dL][dI][dD][dW][dW][dN][dS]; not fully specified; also: TGN via disulfide; listed as Homo sapiens)”, in data set [1] (setting [7]), the “Mortality (words printed in the knockdown column)” value was “All mice died” and the “lethal at this dose” value is recorded as 10*.

Regarding “TGN-S-S-SEQ ID NO: 1654 (D) (CG[dL][dL][dE][dE][dI][dE][dE][dL][dL][dE][dE]G[dL][dE][dN][dL][dI][dD][dW]G[dN][dS]; not fully specified (residue 1); listed as Homo sapiens)”, the “lethal at this dose” value in data set [1] (Table 6, TGN-L-siRNA-III 0.25 mg/kg IV, peptide 50 mg/kg IV 15 min after siRNA) is listed as 50*. The “In vivo mRNA knockdown (%)” value in the data set with CTNNB1 (sequential, peptide IV 15 min after siRNA IV, TGN-L-siRNA-III 0.25 mg/kg, peptide 2 mg/kg) was determined as 51%; with CTNNB1 (sequential, peptide IV 15 min after siRNA IV, TGN-L-siRNA-III 0.25 mg/kg, peptide 10 mg/kg), 72%; with CTNNB1 (sequential, peptide IV 15 min after siRNA IV, TGN-L-siRNA-III 0.25 mg/kg, peptide 50 mg/kg) it was 65%.

With “TGN-S-S-SEQ ID NO: 1746 (D): TGN-S-S-peptide, peptide CEALFGKINAIFIGKL ([dC][dE][dA][dL][dF]G[dK][dI][dN][dA][dI][dF][dI]G[dK][dL]; also: disulfide to TGN peptide via N-terminal Cys; listed as Homo sapiens)”, the “In vivo mRNA knockdown (%)” value in the data set on CTNNB1 (setting [4]) is recorded as 31%; in the data set on CTNNB1 (setting [5]), 25%.

On to “siRNA-IV: CTNNB1 ds siRNA, passenger SEQ ID NO 1807 (clickA, 5Chol), guide SEQ ID NO 1806 (sense CUGUUGGAUUGAUUCGAAAUU; guide TUUCGAAUCAAUCCAACAGUU; clickA; 5' cholesterol; (1)..(1) aminohexyl phosphate inverted abasic cap; (1)..(2) 2′-O-methyl; (3)..(3) 2′-deoxy-2′-fluoro; (4)..(5) 2′-O-methyl; (6)..(8) 2′-deoxy-2′-fluoro; (9)..(10) 2′-O-methyl; (11)..(12) 2′-deoxy-2′-fluoro; (13)..(15) 2′-O-methyl; (16)..(16) 2′-deoxy-2′-fluoro; (17)..(17) 2′ propagyl; (18)..(19) 2′-deoxy-2′-fluoro; (20)..(21) 2′-O-methyl; (20)..(21) phosphorothioate internucleotide linkage; (21)..; (1)..(1) terminal vinyl phosphate; (1)..(1) 2′-methoxyethoxy; (2)..(21) ribonucleotide unmodified or modified as described for this sequence; (2)..(2) 2′-deoxy-2′-fluoro; …)”, for which the “In vivo mRNA knockdown (%)” value turned out to be 25% in the data set on CTNNB1 (siRNA-IV 0.5 mg/kg IV, peptide dose 0); 25% in the data set with CTNNB1 (siRNA-IV 2 mg/kg IV, peptide dose 0); 35% in the data set on CTNNB1 (siRNA-IV 5 mg/kg IV, peptide dose 0).

For the substance “siRNA-VI: CTNNB1 ds siRNA, passenger SEQ ID NO 1803, guide SEQ ID NO 1809 (sense {NH2C6-invAb}-mCmUfGmUmUfGfGfAmUmUfGfAmUmUmCfGfAfAfAmU*mU[invAb]; guide fUfUfUmCfGfAfAmUmCfAfAmUmCfCfAfAmCfAfGmU*mU)”, the “siRNA stability (metabolic stability)” value in data set [2] is recorded as “more unstable”.
